Among the data in patent publication US9562053B2, “Benzo-fused heterocyclic derivatives useful as agonists of GPR120” (Janssen Pharmaceutica NV, priority 2013, dated 2017) are EC50 values, retold here.

The target of the assay is T1, Human GPR120 short form (Homo sapiens, UniProt Q5NUL3).
T1 construct: expressed in transfected cells
T1 sequence (Q5NUL3 1-361): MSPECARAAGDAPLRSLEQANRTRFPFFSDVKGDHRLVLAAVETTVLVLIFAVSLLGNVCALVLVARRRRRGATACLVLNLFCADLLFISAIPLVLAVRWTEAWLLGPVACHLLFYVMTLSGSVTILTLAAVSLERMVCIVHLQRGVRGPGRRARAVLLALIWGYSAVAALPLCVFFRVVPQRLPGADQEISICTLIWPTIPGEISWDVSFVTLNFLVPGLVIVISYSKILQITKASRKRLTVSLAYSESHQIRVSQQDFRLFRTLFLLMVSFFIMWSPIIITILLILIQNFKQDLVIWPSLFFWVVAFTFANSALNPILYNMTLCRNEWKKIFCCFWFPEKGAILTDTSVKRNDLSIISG
Put plainly: Human GPR120 in Calcium Flux Assay, Procedure Calcium B (4200 cells/well). The format is cell-based. An excerpt:
This in vitro assay serves to assess test compound agonist activity against the short splice variant (SVS with Accession number NM_001195755.1 confirmed by sequencing data) of the GPR120 receptor. The Human Short splice variant #2 (NM_001195755.1) is missing an in-frame coding exon compared to variant 1 (the Human Long splice variant NM_181745.3), resulting in a shorter isoform (GPR120-S) lacking a 16 aa protein segment compared to isoform GPR120-L. The assay platform utilizes HEK-293 cells stably transfected to express the Human GPR120 short form. These cells are first loaded with the Ca^+2 sensitive dye, Fluo-4 NW. Upon stimulation, intracellular released Ca^+2 can bind to the dye and alter its fluorescence intensity. This increase in fluorescence signal, and thus the flux in intracellular [Ca^+2], is detected and quantitated by fluorescence imaging using a FLIPR reader. The effect of the agonist is measured as a function of concentration and used to calculate an EC50 based upon a response curve.
In this procedure 4200 cells/well were employed.
A Human GPR120 clone (Genbank accession number NM_001195755.1) was placed into the pcDNA3.1 mammalian expression vector carrying the neomycin resistance gene. A stable mammalian cell was generated by placing the above clone into a HEK293 background. Clonal cells responding to long chain fatty acids had expression levels of GPR120 confirmed by RT-qPCR. Human HEK-GPR120 cells were cultured in Dulbecco's Modified Eagle's Medium (DMEM)/F12 medium supplemented with 10% fetal bovine serum (FBS), 1% L-Glutamine and 1% penicillin/streptomycin and 0.5 mg/ml G-418. Cells were split 2 times a week to keep the cells in the log-phase growth.
In preparation for the assay, HEK cells stably transfected with Human GPR120 (2.5K cells per well in 25 uL growth medium) were seeded into 384-well plates and then incubated overnight (37° C., 5% CO2). The next day, the media was changed to 20 μl assay buffer and the cell starved for 1 h at 37° C. The dye loading solution (2× dye) was prepared using 10 ml assay buffer, 100 μl of 250 mM probenecid, 1 bottle of Component A, and 20 μl of dye in DMSO. Twenty μl of the 2× dye loading buffer was then added to each well. The plates were incubated at 37° C. for 30 min, then at room temperature for an additional 15 minutes, before performing the assay on FLIPR.
Test compounds were prepared in assay buffer (2 μl of test compound+198 μl assay buffer, final DMSO in assay plate is 0.2%) at the desired concentration, more particularly at 100 μM, 50 μM, 25 μM, 12.5 μM, 6.25 μM, 3.125 μM, 1.562 μM, 0.781 μM, 0.391 μM, 0.195 μM, 0.098 μM, 0.049 μM, 0.024 μM and 0.012 μM.
The assay was performed on a FLIPR plate reader using the following parameters. Baseline was read for 10 seconds at 1 sec intervals. The program was set to transfer 10 μL of ligand from compound plate to cell plate after baseline reading. Aspiration was executed at: 10 μl/sec speed, 4.6 μl height; Dispensing was executed at: 30 μl/sec speed, 45 μl height. After compound addition, each well was read for 300 sec, with measurements collected at 1 sec intervals.
The kinetic data from the FLIPR was based upon a 5 minute window for data collection. The fluorescence of each sample well was used for individual calculations of a normalized RFU value, which was defined as maximum response minus the minimum response. The normalized fluorescence reading (RFU) was calculated as follows: RFU=Fmax−Fmin
The data were fitted to a sigmoidal dose-response curve with a variable Hill slope (<2) using nonlinear regression with GraphPad Prism 5.0 to calculate the EC50 values. The Fitting Equation was: Y=Bottom+(Top−Bottom)/(1+10^((LogEC50−X)*HillSlope)), where X is the log of the concentration and Y is the response.
On the technique in general: A change in cytosolic calcium serves as a functional read-out for many receptors and channels.

One may read the EC50 as the concentration needed to bring the measured effect to its halfway point. Regarding `Cc1cc2cc(OC(F)(F)F)cc(COc3ccc(CCC(=O)O)c(C)c3C)c2o1` [Compound 36, 3-(2,3-Dimethyl-4-{[2-methyl-5-(trifluoromethoxy)-1-benzofuran-7-yl]methoxy}phenyl)propanoic acid], the EC50 came out at 0.012 µM.
